Here are results for one compound from patent US7612072B2, “Amorphous form of a phosphoric acid salt of a dipeptidyl peptidase-IV inhibitor” (Merck & Co., Inc., priority 2004, dated 2009).

This series can be described thus: Solubility in water of the amorphous form. It counts as physicochemical.

Take `N[C@@H](CC(=O)N1CCn2c(nnc2C(F)(F)F)C1)Cc1cc(F)c(F)cc1F` [Compound I, (2R)-4-oxo-4-[3-(trifluoromethyl)-5,6-dihydro[1,2,4]triazolo[4,3-α]pyrazin-7(8H)-yl]-1-(2,4,5-trifluorophenyl)butan-2-amine dihydrogenphosphate]: the solubility in water result was “high solubility in water”.
